Measured values taken from patent US20120122860A1, “SOLID FORMS OF SULFONAMIDES AND AMINO ACIDS” (Plexxikon, Inc., priority 2009, published 2012).

Columns and labels:
[1] = Dog PK study of solid forms and formulations; format: in vivo, Beagle dogs
Experimental: Pharmacokinetic properties of various compositions prepared from the complexes may be assessed in male Sprague Dawley rats or male Beagle dogs, and compared to the properties of the free base compound. Rats are dosed daily with compound either by IV injections via surgically implanted jugular catheters or by oral gavage (PO). Each compound is prepared as a 20 mg/mL stock solution in dimethyl sulfoxide, which is further diluted to provide the dosing stock at the desired concentration for the IV or PO formulations. For IV dosing, the dosing stock is diluted into a 1:1:8 mixture of Solutol®:ethanol:water. For PO dosing, the dosing stock is diluted into 1% methylcellulose. In a cassette format, 5 compounds are diluted to 0.5 mg/mL each for IV dosing and 0.4 mg/mL each for PO dosing and dosed at 1 mg/kg (2 mL/kg) or 2 mg/kg (5 mL/kg), respectively. For IV dosed animals, tail vein blood samples are collected with lithium heparin anticoagulant at 5, 15, 30, and 60 minutes and 4, 8, and 24 hours post dosing each day. For PO dosed animals, tail vein blood samples are collected with lithium heparin anticoagulant at 30 minutes, 1, 2, 4, 8 and 24 hours post dosing each day. Dogs are dosed daily by oral capsules in a suitable formulation at 50 mg/mL. Cephalic vein blood samples are collected with lithium heparin anticoagulant at 30 minutes, 1, 2, 4, 8 and 24 hours post dosing each day. All samples are processed to plasma and frozen for later analysis of each compound by LC/MS/MS. Plasma levels as a function of time are plotted to assess the AUC (ng*hr/mL).
The arginine complex of N-[3-(5-chloro-1H-pyrrolo[2,3-b]pyridine-3-carbonyl)-2,4-difluoro-phenyl]-4-trifluoromethyl-benzenesulfonamide P-1021 was analyzed in a number of dog PK studies following the above or similar protocols. These were done primarily at Bridge Laboratories, Beijing, China, with one study done at Seventh Wave Laboratories LLC, Chesterfield, Mo. Plasma samples were analyzed to determine the plasma concentration (PPD Development, Madison, Wis.) at each time point from which the Cmax and AUC∞ were determined. In some instances, the materials are combined in the solvents indicated, and the solvent is removed by evaporation, or by spray drying where indicated. In these tables, unless indicated otherwise, the dose is mg/dog, and the Cmax/dose ((ng/mL)/(mg/kg)) and the AUC∞/dose ((ng*hr/mL)/(mg/kg)) are calculated assuming a 10 kg weight for the dogs.
This study was done at Seventh Wave, containers were provided with 13.259 g, 39.776 g or 66.301 g of this formulation and suspended in 360 mL of 1.5% Polysorbate 20 vehicle and dosed by oral gavage.
N-[3-(5-chloro-1H-pyrrolo[2,3-b]pyridine-3-carbonyl)-2,4-difluoro-phenyl]-4-trifluoromethyl-benzenesulfonamide P-1021 was analyzed in a dog PK study wherein the arginine complex of N-[3-(5-cyano-1H-pyrrolo[2,3-b]pyridine-3-carbonyl)-2,4-difluoro-phenyl]-4-trifluoromethyl-benzenesulfonamide P-1092 was also assessed.

Flt1 = Flt1 (Homo sapiens, UniProt P17948); experiment: Kinase activity assay, Flt1
Chain of Flt1 (P17948 27-1338): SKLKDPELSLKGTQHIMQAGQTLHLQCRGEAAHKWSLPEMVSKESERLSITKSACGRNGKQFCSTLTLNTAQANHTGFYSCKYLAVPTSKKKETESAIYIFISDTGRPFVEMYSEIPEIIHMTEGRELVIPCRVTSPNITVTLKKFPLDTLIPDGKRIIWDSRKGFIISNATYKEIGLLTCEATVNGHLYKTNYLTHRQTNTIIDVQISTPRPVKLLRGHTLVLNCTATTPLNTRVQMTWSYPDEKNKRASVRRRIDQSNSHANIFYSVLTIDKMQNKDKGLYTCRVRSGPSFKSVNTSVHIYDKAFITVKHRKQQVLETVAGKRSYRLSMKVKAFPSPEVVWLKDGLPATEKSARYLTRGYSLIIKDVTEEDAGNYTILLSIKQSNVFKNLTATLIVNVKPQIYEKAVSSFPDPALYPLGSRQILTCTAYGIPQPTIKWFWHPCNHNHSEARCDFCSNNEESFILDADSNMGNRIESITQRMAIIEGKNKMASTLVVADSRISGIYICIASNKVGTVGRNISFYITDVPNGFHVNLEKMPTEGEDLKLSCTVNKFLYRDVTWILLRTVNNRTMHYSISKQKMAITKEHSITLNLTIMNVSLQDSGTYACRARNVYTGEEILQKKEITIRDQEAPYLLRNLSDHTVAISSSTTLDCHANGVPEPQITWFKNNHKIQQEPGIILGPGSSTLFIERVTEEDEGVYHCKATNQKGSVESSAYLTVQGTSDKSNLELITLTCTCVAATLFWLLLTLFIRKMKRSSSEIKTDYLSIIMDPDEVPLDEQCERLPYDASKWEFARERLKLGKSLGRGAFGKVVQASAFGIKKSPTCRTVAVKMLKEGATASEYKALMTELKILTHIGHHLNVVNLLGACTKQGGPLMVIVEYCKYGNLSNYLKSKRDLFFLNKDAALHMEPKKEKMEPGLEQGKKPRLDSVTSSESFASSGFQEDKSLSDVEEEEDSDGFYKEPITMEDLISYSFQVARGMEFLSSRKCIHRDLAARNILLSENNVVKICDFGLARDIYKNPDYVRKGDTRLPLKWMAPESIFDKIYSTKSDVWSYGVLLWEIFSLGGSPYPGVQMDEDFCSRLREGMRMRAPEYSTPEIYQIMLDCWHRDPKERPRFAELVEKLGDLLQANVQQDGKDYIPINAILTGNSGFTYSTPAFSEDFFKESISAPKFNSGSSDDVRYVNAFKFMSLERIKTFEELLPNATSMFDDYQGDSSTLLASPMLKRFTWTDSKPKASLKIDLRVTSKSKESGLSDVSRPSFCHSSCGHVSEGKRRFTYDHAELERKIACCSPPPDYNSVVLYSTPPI

B-Raf = B-Raf (Homo sapiens, UniProt P15056); experiment: Kinase activity assay, B-Raf; format: biochemical; details: read-out: activity toward kinase B-Raf, IC50
Chain of B-Raf (P15056 whole entry): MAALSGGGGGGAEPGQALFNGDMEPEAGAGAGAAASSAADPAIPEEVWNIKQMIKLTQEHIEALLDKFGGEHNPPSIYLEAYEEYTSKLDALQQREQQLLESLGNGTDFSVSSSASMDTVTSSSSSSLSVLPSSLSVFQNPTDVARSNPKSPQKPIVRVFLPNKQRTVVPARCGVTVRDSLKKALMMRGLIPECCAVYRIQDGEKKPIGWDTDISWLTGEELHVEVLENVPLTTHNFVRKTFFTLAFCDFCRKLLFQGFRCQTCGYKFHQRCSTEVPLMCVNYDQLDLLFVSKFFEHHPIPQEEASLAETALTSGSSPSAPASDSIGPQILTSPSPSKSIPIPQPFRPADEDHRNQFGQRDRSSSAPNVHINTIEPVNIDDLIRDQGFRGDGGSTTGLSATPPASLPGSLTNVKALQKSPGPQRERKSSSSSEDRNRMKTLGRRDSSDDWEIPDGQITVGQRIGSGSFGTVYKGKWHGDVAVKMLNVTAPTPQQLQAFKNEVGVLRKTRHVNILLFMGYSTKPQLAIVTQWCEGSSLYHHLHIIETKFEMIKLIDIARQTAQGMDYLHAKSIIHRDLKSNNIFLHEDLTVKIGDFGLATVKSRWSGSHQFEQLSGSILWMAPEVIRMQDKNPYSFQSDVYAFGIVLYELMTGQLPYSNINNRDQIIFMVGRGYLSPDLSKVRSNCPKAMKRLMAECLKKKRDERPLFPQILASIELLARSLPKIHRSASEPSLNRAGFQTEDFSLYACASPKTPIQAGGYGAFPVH

Kdr = Kdr (Homo sapiens, UniProt P35968); experiment: Kinase activity assay, Kdr
Chain of Kdr (P35968 20-1356): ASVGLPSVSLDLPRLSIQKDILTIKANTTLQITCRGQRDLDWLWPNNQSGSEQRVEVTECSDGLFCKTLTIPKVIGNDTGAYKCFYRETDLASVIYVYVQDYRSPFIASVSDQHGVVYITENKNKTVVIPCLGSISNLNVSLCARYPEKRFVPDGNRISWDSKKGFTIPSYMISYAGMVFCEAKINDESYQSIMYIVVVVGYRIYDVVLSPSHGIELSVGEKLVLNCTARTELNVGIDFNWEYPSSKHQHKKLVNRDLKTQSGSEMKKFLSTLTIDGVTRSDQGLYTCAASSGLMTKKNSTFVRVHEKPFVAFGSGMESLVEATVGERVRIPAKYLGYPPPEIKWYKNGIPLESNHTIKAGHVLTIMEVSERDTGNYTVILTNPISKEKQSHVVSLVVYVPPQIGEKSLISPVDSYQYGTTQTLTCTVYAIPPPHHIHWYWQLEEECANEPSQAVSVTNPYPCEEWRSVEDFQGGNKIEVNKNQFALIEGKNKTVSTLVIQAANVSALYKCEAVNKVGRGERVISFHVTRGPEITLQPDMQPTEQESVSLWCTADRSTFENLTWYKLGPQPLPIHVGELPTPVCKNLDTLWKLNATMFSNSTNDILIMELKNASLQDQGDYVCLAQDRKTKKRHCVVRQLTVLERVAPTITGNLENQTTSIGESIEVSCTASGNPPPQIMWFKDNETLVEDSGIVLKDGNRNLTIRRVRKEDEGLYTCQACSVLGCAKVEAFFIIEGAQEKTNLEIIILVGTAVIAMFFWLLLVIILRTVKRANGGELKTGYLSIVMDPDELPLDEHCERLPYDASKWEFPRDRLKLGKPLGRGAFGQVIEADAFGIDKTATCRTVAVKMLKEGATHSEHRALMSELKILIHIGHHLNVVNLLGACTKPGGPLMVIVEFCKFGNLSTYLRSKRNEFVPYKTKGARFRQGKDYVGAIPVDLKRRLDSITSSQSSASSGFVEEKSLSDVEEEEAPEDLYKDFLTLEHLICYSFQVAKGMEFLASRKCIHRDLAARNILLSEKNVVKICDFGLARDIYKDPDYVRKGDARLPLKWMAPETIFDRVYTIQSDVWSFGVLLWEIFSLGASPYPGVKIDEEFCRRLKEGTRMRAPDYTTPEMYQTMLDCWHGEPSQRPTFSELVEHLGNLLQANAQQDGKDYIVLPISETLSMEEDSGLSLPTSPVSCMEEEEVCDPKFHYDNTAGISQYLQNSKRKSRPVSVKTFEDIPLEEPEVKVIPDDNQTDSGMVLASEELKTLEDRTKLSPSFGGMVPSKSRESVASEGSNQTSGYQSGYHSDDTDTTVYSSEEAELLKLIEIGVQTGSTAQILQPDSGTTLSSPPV

C-Raf = C-Raf (Homo sapiens, UniProt P04049); experiment: Kinase activity assay, C-Raf
Chain of C-Raf (P04049 whole entry): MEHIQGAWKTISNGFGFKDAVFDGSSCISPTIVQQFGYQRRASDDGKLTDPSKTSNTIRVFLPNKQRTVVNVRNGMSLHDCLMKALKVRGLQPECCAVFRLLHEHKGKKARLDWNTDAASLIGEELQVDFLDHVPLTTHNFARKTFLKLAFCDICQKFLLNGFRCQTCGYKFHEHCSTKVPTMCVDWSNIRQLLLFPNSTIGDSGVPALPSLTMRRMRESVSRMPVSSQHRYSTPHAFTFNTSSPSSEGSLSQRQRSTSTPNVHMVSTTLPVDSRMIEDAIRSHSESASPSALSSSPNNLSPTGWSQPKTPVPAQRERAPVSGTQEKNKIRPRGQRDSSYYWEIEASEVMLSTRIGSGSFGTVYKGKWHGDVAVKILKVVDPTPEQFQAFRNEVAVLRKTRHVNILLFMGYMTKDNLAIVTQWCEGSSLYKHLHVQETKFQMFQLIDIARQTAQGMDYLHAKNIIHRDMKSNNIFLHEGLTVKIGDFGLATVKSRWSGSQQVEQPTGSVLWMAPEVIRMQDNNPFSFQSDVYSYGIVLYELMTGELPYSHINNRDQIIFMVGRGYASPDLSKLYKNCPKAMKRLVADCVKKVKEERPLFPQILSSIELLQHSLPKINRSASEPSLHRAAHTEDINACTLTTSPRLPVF

B-Raf V600E = B-Raf V600E (Homo sapiens, UniProt P15056, V600E); experiment: Kinase activity assay, B-Raf V600E; format: biochemical; details: read-out: activity toward kinase B-Raf V600E, IC50
Chain of B-Raf V600E (P15056 whole entry V600E): as the sequence (P15056 whole entry) above, with V600E counted along it

Src = Src (Homo sapiens, UniProt P12931); experiment: Kinase activity assay, Src
Kit = Kit (Homo sapiens, UniProt P10721); experiment: Kinase activity assay, Kit
Fms = Fms (Homo sapiens, UniProt P07333); experiment: Kinase activity assay, Fms
Chain of Fms (P07333 20-972): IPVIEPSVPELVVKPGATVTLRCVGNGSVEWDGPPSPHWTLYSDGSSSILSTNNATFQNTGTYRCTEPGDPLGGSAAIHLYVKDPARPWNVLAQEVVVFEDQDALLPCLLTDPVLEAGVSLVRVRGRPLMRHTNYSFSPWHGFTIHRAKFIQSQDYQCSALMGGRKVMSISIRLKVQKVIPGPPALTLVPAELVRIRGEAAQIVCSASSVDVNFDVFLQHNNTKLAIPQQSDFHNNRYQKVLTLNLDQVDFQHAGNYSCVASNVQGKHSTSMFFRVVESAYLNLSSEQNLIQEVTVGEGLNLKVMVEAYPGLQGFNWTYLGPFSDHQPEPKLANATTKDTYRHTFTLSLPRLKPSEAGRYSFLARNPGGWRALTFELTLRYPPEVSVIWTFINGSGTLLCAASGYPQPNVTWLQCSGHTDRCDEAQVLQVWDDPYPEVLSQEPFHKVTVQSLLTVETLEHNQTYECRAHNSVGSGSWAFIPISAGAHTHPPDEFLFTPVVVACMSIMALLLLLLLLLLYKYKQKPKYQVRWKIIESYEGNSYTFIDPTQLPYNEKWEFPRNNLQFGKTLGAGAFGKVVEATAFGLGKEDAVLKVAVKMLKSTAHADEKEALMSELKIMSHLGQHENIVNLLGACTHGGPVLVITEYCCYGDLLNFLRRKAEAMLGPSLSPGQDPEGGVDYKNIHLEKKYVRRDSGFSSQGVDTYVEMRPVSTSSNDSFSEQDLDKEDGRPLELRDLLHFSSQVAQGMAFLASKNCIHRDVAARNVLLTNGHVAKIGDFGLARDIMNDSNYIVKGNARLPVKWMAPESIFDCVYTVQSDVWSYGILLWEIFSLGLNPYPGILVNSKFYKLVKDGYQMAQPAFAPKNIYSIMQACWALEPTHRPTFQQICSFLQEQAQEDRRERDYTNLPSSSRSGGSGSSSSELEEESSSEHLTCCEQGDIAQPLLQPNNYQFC

[2] = Table 5B, forms of P-1021, dog, dose 150 mg/dog, 10 kg weight assumed
[3] = Table 7B, P-1021 arginine complex, dog, dose 200 mg/dog, 10 kg weight assumed
[4] = Table 7B, P-1021 arginine complex, dog, dose 400 mg/dog, 10 kg weight assumed
[5] = Table 8B, P-1021 arginine complex, dog, oral gavage, dose 249 mg/kg
[6] = Table 8B, P-1021 arginine complex, dog, oral gavage, dose 795 mg/kg
[7] = Table 8B, P-1021 arginine complex, dog, oral gavage, dose 965 mg/kg
[8] = test articles are solid forms of P-1021, dog, oral, 100 mg/dog, calculated assuming a 10 kg weight
[9] = Table 9B, dog, dose 200 mg/dog, 10 kg weight assumed
[10] = Table 9B, dog, dose 400 mg/dog, 10 kg weight assumed

SMILES | IC50 (Flt1) [µM] | IC50 (B-Raf) [µM] | IC50 (Kdr) [µM] | IC50 (C-Raf) [µM] | IC50 (B-Raf V600E) [µM] | IC50 (Src) [µM] | IC50 (Kit) [µM] | IC50 (Fms) [µM] | also measured
O=C(c1c(F)ccc(NS(=O)(=O)c2ccc(C(F)(F)F)cc2)c1F)c1c[nH]c2ncc(Cl)cc12 [P-1021 arginine complex, N-[3-(5-chloro-1H-pyrrolo[2,3-b]pyridine-3-carbonyl)-2,4-difluoro-phenyl]-4-trifluoromethyl-benzenesulfonamide] |  |  |  |  |  |  |  |  | AUC/dose ([1]; P-1021 arginine complex dosed at 400 mg per dog (Table 6B, Table 7B), typical value): greater than 12,000 (ng*hr/mL)/(mg/kg); AUC∞/dose [1, 2]: 34,693 (ng*hr/mL)/(mg/kg); Cmax/dose [1, 2]: 810 (ng/mL)/(mg/kg); AUC∞/dose [1, 3]: 22,480 (ng*hr/mL)/(mg/kg); Cmax/dose [1, 3]: 960 (ng/mL)/(mg/kg); AUC∞/dose [1, 4]: 12,120 (ng*hr/mL)/(mg/kg); Cmax/dose [1, 4]: 455 (ng/mL)/(mg/kg); AUC∞/dose [1, 5]: 11,247 (ng*hr/mL)/(mg/kg); Cmax/dose [1, 5]: 208 (ng/mL)/(mg/kg); AUC∞/dose [1, 6]: 7,457 (ng*hr/mL)/(mg/kg); Cmax/dose [1, 6]: 107 (ng/mL)/(mg/kg); AUC∞/dose [1, 7]: 3,883 (ng*hr/mL)/(mg/kg); Cmax/dose [1, 7]: 178 (ng/mL)/(mg/kg); AUC∞/dose [1, 8]: 16,850 (ng*hr/mL)/(mg/kg); Cmax/dose [1, 8]: 830.5 (ng/mL)/(mg/kg)
O=C(c1c(F)ccc(NS(=O)(=O)c2ccc(C(F)(F)F)cc2)c1F)c1c[nH]c2ncc(Cl)cc12 [P-1021, N-[3-(5-chloro-1H-pyrrolo[2,3-b]pyridine-3-carbonyl)-2,4-difluoro-phenyl]-4-trifluoromethyl-benzenesulfonamide] |  |  |  |  |  |  |  |  | Cmax and AUC / exposure, comparison in words ([1]; dog PK studies, arginine complex): favorable Cmax and AUC compared to free base and other formulations
N#Cc1cnc2[nH]cc(C(=O)c3c(F)ccc(NS(=O)(=O)c4ccc(C(F)(F)F)cc4)c3F)c2c1 [P-1092 arginine complex, N-[3-(5-cyano-1H-pyrrolo[2,3-b]pyridine-3-carbonyl)-2,4-difluoro-phenyl]-4-trifluoromethyl-benzenesulfonamide] |  |  |  |  |  |  |  |  | AUC∞/dose [1, 9]: 11,720 (ng*hr/mL)/(mg/kg); Cmax/dose [1, 9]: 550 (ng/mL)/(mg/kg); AUC∞/dose [1, 10]: 12,580 (ng*hr/mL)/(mg/kg); Cmax/dose [1, 10]: 617.5 (ng/mL)/(mg/kg)
CCCS(=O)(=O)Nc1ccc(F)c(C(O)c2c[nH]c3ncc(-c4ccc(C(=O)NCC)nc4)cc23)c1F (centres unmarked) [P-2150, 5-(3-{[2,6-Difluoro-3-(propane-1-sulfonylamino)-phenyl]-hydroxy-methyl}-1H-pyrrolo[2,3-b]pyridin-5-yl)-pyridine-2-carboxylic acid ethylamide] | ≤ 10 | ≤ 10 | ≤ 10 | ≤ 10 | ≤ 10 | ≤ 10 |  |  | 
CCCS(=O)(=O)Nc1ccc(F)c(C(=O)c2c[nH]c3ncc(-c4ccc(C(=O)NCC)nc4)cc23)c1F [P-2151, 5-{3-[2,6-Difluoro-3-(propane-1-sulfonylamino)-benzoyl]-1H-pyrrolo[2,3-b]pyridin-5-yl}-pyridine-2-carboxylic acid ethylamide] | ≤ 10 | ≤ 10 | ≤ 10 | ≤ 10 | ≤ 10 | ≤ 10 | ≤ 10 | ≤ 10 | 
CCCS(=O)(=O)Nc1ccc(F)c(C(=O)c2c[nH]c3ncc(-c4cncnc4)cc23)c1F [P-2162, Propane-1-sulfonic acid [2,4-difluoro-3-(5-pyrimidin-5-yl-1H-pyrrolo[2,3-b]pyridine-3-carbonyl)-phenyl]-amide] | ≤ 10 | ≤ 10 | ≤ 10 | ≤ 10 | ≤ 10 | ≤ 10 |  |  | 
CCCS(=O)(=O)Nc1ccc(F)c(C(=O)c2c[nH]c3ncc(C(=O)NC)cc23)c1F [P-2200, 3-[2,6-Difluoro-3-(propane-1-sulfonylamino)-benzoyl]-1H-pyrrolo[2,3-b]pyridine-5-carboxylic acid methylamide] | ≤ 10 | ≤ 10 | ≤ 10 | ≤ 10 | ≤ 10 |  | ≤ 10 | ≤ 10 | 
CCCS(=O)(=O)Nc1ccc(F)c(C(=O)c2c[nH]c3ncc(C(=O)NC4CC4)cc23)c1F [P-2201, 3-[2,6-Difluoro-3-(propane-1-sulfonylamino)-benzoyl]-1H-pyrrolo[2,3-b]pyridine-5-carboxylic acid cyclopropylamide] | ≤ 10 | ≤ 10 | ≤ 10 | ≤ 10 | ≤ 10 |  | ≤ 10 | ≤ 10 | 
CCCS(=O)(=O)Nc1ccc(F)c(C(=O)c2c[nH]c3ncc(-c4cnc(OCCCN(C)C)nc4)cc23)c1F [P-2203, Propane-1-sulfonic acid (3-{5-[2-(3-dimethylamino-propoxy)-pyrimidin-5-yl]-1H-pyrrolo[2,3-b]pyridine-3-carbonyl}-2,4-difluoro-phenyl)-amide] | ≤ 10 | ≤ 10 | ≤ 10 |  | ≤ 10 |  | ≤ 10 | ≤ 10 | 
CCCS(=O)(=O)Nc1ccc(F)c(C(=O)c2c[nH]c3ncc(-c4ccc(C)nc4)cc23)c1F [P-2213, Propane-1-sulfonic acid {2,4-difluoro-3-[5-(6-methyl-pyridin-3-yl)-1H-pyrrolo[2,3-b]pyridine-3-carbonyl]-phenyl}-amide] | ≤ 10 | ≤ 10 | ≤ 10 | ≤ 10 | ≤ 10 | ≤ 10 | ≤ 10 | ≤ 10 | 
CCCS(=O)(=O)Nc1ccc(F)c(C(=O)c2c[nH]c3ncc(C(=O)NCCO)cc23)c1F [P-2217, 3-[2,6-Difluoro-3-(propane-1-sulfonylamino)-benzoyl]-1H-pyrrolo[2,3-b]pyridine-5-carboxylic acid (2-hydroxy-ethyl)-amide] | ≤ 10 | ≤ 10 | ≤ 10 | ≤ 10 | ≤ 10 | ≤ 10 |  |  | 
CCCS(=O)(=O)Nc1ccc(F)c(C(=O)c2c[nH]c3ncc(-c4ccc(S(=O)(=O)CC)cc4)cc23)c1F [P-2218, Propane-1-sulfonic acid {3-[5-(4-ethanesulfonyl-phenyl)-1H-pyrrolo[2,3-b]pyridine-3-carbonyl]-2,4-difluoro-phenyl}-amide] | ≤ 10 | ≤ 10 | ≤ 10 | ≤ 10 | ≤ 10 |  | ≤ 10 | ≤ 10 | 
CCCS(=O)(=O)Nc1cccc(C(=O)c2c[nH]c3ncc(C(=O)OC)cc23)c1F [P-2404, 3-[2-Fluoro-3-(propane-1-sulfonylamino)-benzoyl]-1H-pyrrolo[2,3-b]pyridine-5-carboxylic acid methyl ester] | ≤ 10 | ≤ 10 | ≤ 10 | ≤ 10 | ≤ 10 |  |  | ≤ 10 | 
O=C(c1c(F)ccc(NS(=O)(=O)c2ccc(C(F)(F)F)cc2)c1F)c1c[nH]c2ncc(Cl)cc12 [Sulfate, N-[3-(5-chloro-1H-pyrrolo[2,3-b]pyridine-3-carbonyl)-2,4-difluoro-phenyl]-4-trifluoromethyl-benzenesulfonamide] |  |  |  |  |  |  |  |  | AUC∞/dose [1, 8]: 5,067 (ng*hr/mL)/(mg/kg); Cmax/dose [1, 8]: 181.5 (ng/mL)/(mg/kg)
